Counter-ions that a name gives are not always drawn.
How the values were obtained:
DU145 cells = experiment: CellTiter-Glo Luminescent Cell Viability Assay, DU145; type: cell-based; conditions: Homo sapiens, DU-145; 48 hours incubation; mean of at least two determinations; read-out: DU145 IC50 μM (antiproliferative activity)
From the text: CellTiter-Glo® Luminescent Cell Viability Assay (Promega, Catalog number: G7571) is a homogeneous method of determining the number of viable cells in culture based on quantitation of the present ATP, which indicates the presence of metabolically active cells. The homogeneous assay procedure involves addition of a single reagent (CellTiter-Glo® Reagent) directly to the cells, which leads to cell lysis and generation of a luminescent signal proportional to the amount of the ATP and the number of cells present in culture. The assay relies on the properties of a proprietary thermostable luciferase (Ultra-Glo® recombinant luciferase), which generates a luminescent signal.
DU145 cells (obtained from CLS Cell Lines Service GmbH item 300168) were grown in DMEM (Sigma Aldrich catalog number D6171-500 ml) supplemented with 10% Fetal Bovine Serum (Euroclone, catalog number. ECS0180L), 2 mM L-Glutamine (Euroclone catalog number LOBE17605F) and 100 U/ml penicillin-[…] streptomycin (EuroClone, ECB3001L). LNCaP cells (obtained from CLS Cell Lines Service GmbH item 300265) were grown in RPMI1640 (Lonza catalog number BE12-167F) supplemented with 10% Fetal Bovine Serum (Euroclone, catalog number. ECS0180L), 2 mM L-Glutamine (Euroclone catalog number LOBE17605F) and 100 U/ml penicillin-[…] streptomycin (EuroClone, ECB3001 L).
To determine the antiproliferative activity of the compounds, 3000 DU145 cells and 5000 LNCap cells were seeded in 96 multiwell plate (Sigma catalog number CLS9102) per well. 24 hours after seeding, the cells were incubated for 48 hours with different concentrations of the inhibitors (from 50 to 0 μM with a 3-fold dilution) dissolved in DMSO. After 48 hours, a volume of CellTiter-Glo® Reagent equal to the volume of cell culture medium was added. The content was mixed for 2 min to induce cell lysis. The luminescence was measured and recorded with Tecan Infinite 200 multimode plate reader after further 10 min at room temperature in order to obtain a stable luminescent signal.
The IC50 was calculated using GraphPad Software from the recorded luminescent signal.

[1] = target: T1, untagged HECT of NEDD4 wild-type (WT) (E3 ligase) (Homo sapiens, UniProt P46934); experiment: In vitro ubiquitination assay TR-FRET based (self-ubiquitination of NEDD4); type: biochemical; conditions: for inhibition at 11 µM: pre-incubated for 1 hour, AUC of 120 minutes kinetic, read-out: percentages of inhibition (NEDD4)
T1 construct: untagged HECT of NEDD4 wild-type (WT) (E3 ligase); made in house
T1 sequence (P46934 519-900 isoform P46934-4 limits assumed): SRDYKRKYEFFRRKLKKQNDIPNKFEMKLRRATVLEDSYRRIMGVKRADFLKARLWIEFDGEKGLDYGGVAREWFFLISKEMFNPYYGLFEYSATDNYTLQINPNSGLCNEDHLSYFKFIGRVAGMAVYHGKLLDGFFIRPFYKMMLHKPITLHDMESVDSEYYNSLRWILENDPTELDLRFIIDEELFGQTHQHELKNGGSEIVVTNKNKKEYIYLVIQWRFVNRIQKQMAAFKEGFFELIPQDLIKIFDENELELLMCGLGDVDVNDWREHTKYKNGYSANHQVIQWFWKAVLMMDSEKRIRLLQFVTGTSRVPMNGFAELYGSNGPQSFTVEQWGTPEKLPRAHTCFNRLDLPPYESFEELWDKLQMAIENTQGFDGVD
Summary of the method: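 Mix of E1, His-UBE2D3 and untagged NEDD4 HECT (final 30, 350, 50 nM) with Eu-cryptate/Cy5/unlabelled ubiquitin in pH 7.6 Tris buffer, compounds (100–0.005 μM dilution series) pre-incubated 1 h, then started with ATP. 665/620 nm TR-FRET followed 120 min; % inhibition from AUC versus DMSO, no-ATP background.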

SMILES	IC50 (DU145 cells)	inhibition at 11 µM [1]	inhibition of enzymatic activity, TR-FRET kinetic assay (% of signal/background during the time) ([1]; FIG. 1, HECT NEDD4 WT, concentrations indicated in the figure)
CCOC(=O)/C=C/CCNCCCN1c2ccccc2CCc2ccc(Cl)cc21 [Compound 5, Ethyl (E)-5-[3-(3-chloro-10,11-dihydro-5H-dibenzo[b,f]azepin-5-yl)propylamino]pent-2-enoate maleate]	7.68 µM	> 50%	–
CON(C)C(=O)/C=C/CN(C)CCCCN1c2ccccc2CCc2ccc(Cl)cc21 [Compound 9, (E)-4-[4-(3-Chloro-10,11-dihydro-5H-dibenzo[b,f]azepin-5-yl)butyl-methyl-amino]-N-methoxy-N-methyl-but-2-enamide]	–	> 50%	–
CCOC(=O)/C=C/CNCCCCN1c2ccccc2CCc2ccc(Cl)cc21.O=C(O)/C=C\C(=O)O [Compound 12, Ethyl (E)-4-[4-(3-chloro-10,11-dihydro-5H-dibenzo[b,f]azepin-5-yl)butylamino]but-2-enoate maleate]	6.81 µM	> 50%	dose dependent inhibition of enzymatic activity
CCOC(=O)/C=C/CNCCCCN1c2ccccc2C(=O)N(C)c2ccc(Cl)cc21 [Compound 29, Ethyl (E)-4-{[4-(7-chloro-10-methyl-11-oxo-10,11-dihydro-5H-dibenzo[b,e][1,4]diazepin-5-yl)butyl]amino}but-2-enoate maleate]	–	> 50%	–
CCOC(=O)/C=C/CNCCCCN1c2cc(Cl)ccc2C(=O)N(C)c2ccccc21 [Compound 42, Ethyl (E)-4-{[4-(3-chloro-10-methyl-11-oxo-10,11-dihydro-5H-dibenzo[b,e][1,4]diazepin-5-yl)butyl]amino}but-2-enoate maleate]	9.18 µM	> 50%	–
COC(=O)/C=C/CN(C)CCCCN1c2cc(Cl)ccc2C(=O)N(Cc2ccccc2)c2ccccc21 [Compound 58, Methyl (E)-4-{[4-(10-benzyl-3-chloro-11-oxo-10,11-dihydro-5H-dibenzo[b,e][1,4]diazepin-5-yl)butyl](methyl)amino}but-2-enoate maleate]	–	> 50%	–
C#CCON(C)C(=O)/C=C/CN(C)CCCCN1c2ccccc2CCc2ccc(Cl)cc21 [Compound 77, (E)-4-[4-(3-Chloro-10,11-dihydro-5H-dibenzo[b,f]azepin-5-yl)butyl-methyl-amino]-N-methyl-N-prop-2-ynoxy-but-2-enamide maleate]	–	> 50%	–
CONC(=O)/C=C/CN(C)CCCCN1c2ccccc2CCc2ccc(Cl)cc21 [Compound 85, (E)-4-[4-(3-Chloro-10,11-dihydro-5H-dibenzo[b,f]azepin-5-yl)butyl-methyl-amino]-N-methoxy-but-2-enamide maleate]	11.3 µM	> 50%	–

Now from value to molecule, other results behind:

IC50 (DU145 cells)	inhibition at 11 µM [1]	SMILES	inhibition of enzymatic activity, TR-FRET kinetic assay (% of signal/background during the time) ([1]; FIG. 1, HECT NEDD4 WT, concentrations indicated in the figure)
4.97 µM	> 50%	CCOC(=O)/C=C/CNCCCCN1c2ccccc2C(=O)N(Cc2ccccc2)c2ccc(Cl)cc21 [Compound 45, Ethyl (E)-4-{[4-(10-benzyl-7-chloro-11-oxo-10,11-dihydro-5H-dibenzo[b,e][1,4]diazepin-5-yl)butyl]amino}but-2-enoate maleate]	–
–	> 50%	CCOC(=O)/C=C/CNCCCCN1c2cc(Cl)ccc2C(=O)N(Cc2ccccc2)c2ccccc21 [Compound 56, Ethyl (E)-4-((4-(10-benzyl-3-chloro-11-oxo-10,11-dihydro-5H-dibenzo[b,e][1,4]diazepin-5-yl)butyl)amino)but-2-enoate maleate]	–
–	> 50%	CN(C/C=C/C#N)CCCCN1c2cc(Cl)ccc2C(=O)N(Cc2ccccc2)c2ccccc21 [Compound 61, (E)-4-{[4-(10-benzyl-3-chloro-11-oxo-10,11-dihydro-5H-dibenzo[b,e][1,4]diazepin-5-yl)butyl](methyl)amino}but-2-enenitrile maleate]	–
–	> 50%	CONC(=O)/C=C/CNCCCCN1c2ccccc2CCc2ccc(Cl)cc21 [Compound 78, (E)-4-[4-(3-Chloro-10,11-dihydro-5H-dibenzo[b,f]azepin-5-yl)butylamino]-N-methoxy-but-2-enamide maleate]	–
–	> 50%	CN(C/C=C/C(=O)OCCOCCOCCOCCNC(=O)CCCC[C@@H]1SC[C@@H]2NC(=O)N[C@@H]21)CCCCN1c2ccccc2CCc2ccc(Cl)cc21 [Compound 94, 2-[2-(2-{2-[5-((3aS,4S,6aR)-2-Oxo-hexahydro-thieno[3,4-d]imidazol-4-yl)-pentanoylamino]-ethoxy}-ethoxy)-ethoxy]-ethyl (E)-4-{[4-(3-chloro-10,11-dihydro-dibenzo[b,f]azepin-5-yl)-butyl]-methyl-amino}but-2-enoate]	–
